Experimental data: patent US5413915A (priority 1991, dated 1995)
Marks after values point to notes of the source that are not given here.

What was measured:
[1] = in vivo; cited from earlier work
rat liver microsomes = type: biochemical; design: unit not given here
Salmonella typhimurium = conditions: cited from earlier work
[2] = in vivo; cited from earlier work; remark: listed apart in the source

SMILES | Teratogen Activity [1] | Detector Response, threshold dose (rat liver microsomes) | Mutagenicity (Salmonella typhimurium) | Tumorigen Activity [2] | Tumorigen Activity, assignment based on NCI/NTP carcinogenesis bioassay results [2]
Oc1ccc(Cl)cc1 [4-Chlorophenol] | - | < 1 | + | + | 
Oc1cccc2cccnc12 [8-Hydroxyquinoline] | - | 0.3 | + | + | 
CC(C)=O [Acetone] | - | > 50 | - | - | 
C=CC#N [Acrylonitrile] | + | 20 | + | + | 
O=C1c2ccccc2C(=O)c2ccccc21 [Anthraquinone] | - | 1-20 | - | - | 
CCNc1nc(Cl)nc(NC(C)C)n1 [Atrazine (ind.), Atrazine] | - | 0.05 | - | +^e | 
Cc1cc(C(C)(C)C)c(O)c(C(C)(C)C)c1 [BHT] | - | 200 | - | +/- | 
[Ba+2] [Barium(II)] | - | 20-100 | - | - | 
[Ca+2] [Calcium(II)] | - | 10 | - | +/- | 
CCOP(=S)(OCC)Oc1nc(Cl)c(Cl)cc1Cl [Chlorpyrifos (ind.), Chlorpyrifos] | + | 0.01 | - | - | 
N#CN [Cyanamid] | - | 30 | + | +^e | 
C[C@H](CCC(=O)O)[C@H]1CC[C@H]2[C@@H]3CC[C@@H]4C[C@H](O)CC[C@]4(C)[C@H]3C[C@H](O)[C@]12C [Deoxycholate] | + | 0.5 | - | - | 
CCOP(=S)(OCC)Oc1cc(C)nc(C(C)C)n1 [Diazinon (ind.), Diazinon] | + | 1-100 | - | - | 
CCN(CC)C(=S)S [Diethyldithiocarbamic acid] | + | 0.2 | - | +^t | -
CCN(CC)N=O [Diethylnitrosamine] | + | 0.1-1 | + | + | 
c1ccc(Nc2ccccc2)cc1 [Diphenylamine] | + | 100 | - | - | 
[Dy+3] [Dysprosium(III)] | - | 5 | - | - | 
O=S1OCC2C(CO1)C1(Cl)C(Cl)=C(Cl)C2(Cl)C1(Cl)Cl (stereo not shown) [Endosulfan (ind.), Endosulfan] | + | 0.1 | - | +^b | -
CCOC(=O)c1ccc(O)cc1 [Ethyl p-Hydroxybenzoate] | + | 30 | - | - | 
NC=O [Formamide] | + | 100 | - | - | 
